Here are results for eight molecules from patent US20240208937A1, “Compounds and Their Use for Treatment of Hemoglobinopathies” (Bristol-Myers Squibb Company, priority 2022, published 2024).

Common to all, as to type: cell-based
The target in assay [1] is WIZ (Widely interspaced zinc finger) (Homo sapiens (Human), UniProt O95785+Q96SW2). Kind of assay: HUDEP-2 WIZ HiBiT degradation assay. As to conditions: HUDEP-2 WIZ HiBiT cells, 24 hours treatment, luminescence; for DC50: read-out: WIZ EC50. An outline of the steps:
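HiBiT-tagged WIZ HUDEP-2 cells were seeded at 1.0×10^6 cells/ml in supplemented StemSpan SFEM II with doxycycline and treated 24 h at 37 °C. Remaining tagged protein was read by Nano-Glo HiBiT lytic luminescence. EC50 and Y-min were fitted after DMSO normalization across 10 concentrations, 10 to 0.0005 μM.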

Assay [2] concerns the target ZBTB7A (Zinc Finger And BTB Domain Containing 7A) (Homo sapiens (Human), UniProt O95365+Q96SW2). The experiment in a line: HUDEP-2 ZBTB7A HiBiT degradation assay. The conditions noted are these: HUDEP-2 ZBTB7A HiBiT cells, 24 hours treatment, luminescence; for DC50: read-out: ZBTB7A EC50. An outline of the steps: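 HUDEP-2 cells carrying HiBiT-tagged ZBTB7A, grown 48 h in IMDM with EPO, SCF, insulin, transferrin, heparin, dox and 5% human plasma, then seeded at 1.0×10^6 cells/ml on pre-dispensed compound (10 concentrations, 10–0.0005 μM) for 24 h at 37 °C. Lytic HiBiT luminescence, DMSO-normalised, gave EC50 and Y-min.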
A general note: With HiBiT, luminescence reflects the tagged protein that the partner subunit can reach.

Assay [3] concerns fetal hemoglobin (HbF) in GCSF-mobilized human CD34+ cells. Kind of assay: HbF Induction Assay. As to conditions: 168 h; compound 1 μM, 7 days, erythroid-differentiated human CD34+ cells, flow cytometry; DMSO baseline 15% HbF positive cells. An outline of the steps: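 GCSF-mobilized human CD34+ cells were expanded for 7 days with SCF, Flt3-L, IL-3 and EPO, then differentiated with SCF and EPO while dosed at 1 μM (0.1% DMSO), with compound refreshed every 2 days for 7 days. Viability and % HbF-positive cells and MFI were measured by flow cytometry with anti-HbF staining, relative to DMSO controls.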
A general note: Flow cytometry measures light scatter and fluorescence of single cells or particles in a stream.

Sequence of ZBTB7A (Zinc Finger And BTB Domain Containing 7A) (O95365 whole entry, the tested form may be a part): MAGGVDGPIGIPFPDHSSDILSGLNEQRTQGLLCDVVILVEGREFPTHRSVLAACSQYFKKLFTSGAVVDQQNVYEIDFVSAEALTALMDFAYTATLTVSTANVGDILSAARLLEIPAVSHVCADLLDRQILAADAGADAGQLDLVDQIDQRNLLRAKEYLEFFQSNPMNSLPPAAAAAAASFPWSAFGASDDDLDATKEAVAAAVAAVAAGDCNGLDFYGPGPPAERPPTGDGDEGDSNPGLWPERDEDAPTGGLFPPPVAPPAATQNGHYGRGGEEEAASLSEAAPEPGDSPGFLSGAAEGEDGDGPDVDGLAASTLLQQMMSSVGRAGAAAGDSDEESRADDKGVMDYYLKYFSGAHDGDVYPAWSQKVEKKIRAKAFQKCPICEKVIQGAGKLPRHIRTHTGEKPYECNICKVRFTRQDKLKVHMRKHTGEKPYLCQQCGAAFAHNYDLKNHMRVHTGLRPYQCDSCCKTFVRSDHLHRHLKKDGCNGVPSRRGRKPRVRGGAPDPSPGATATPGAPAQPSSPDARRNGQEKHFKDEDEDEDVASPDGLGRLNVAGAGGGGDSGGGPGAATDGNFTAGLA
Sequence of ZBTB7A (Zinc Finger And BTB Domain Containing 7A) (Q96SW2 whole entry, the tested form may be a part): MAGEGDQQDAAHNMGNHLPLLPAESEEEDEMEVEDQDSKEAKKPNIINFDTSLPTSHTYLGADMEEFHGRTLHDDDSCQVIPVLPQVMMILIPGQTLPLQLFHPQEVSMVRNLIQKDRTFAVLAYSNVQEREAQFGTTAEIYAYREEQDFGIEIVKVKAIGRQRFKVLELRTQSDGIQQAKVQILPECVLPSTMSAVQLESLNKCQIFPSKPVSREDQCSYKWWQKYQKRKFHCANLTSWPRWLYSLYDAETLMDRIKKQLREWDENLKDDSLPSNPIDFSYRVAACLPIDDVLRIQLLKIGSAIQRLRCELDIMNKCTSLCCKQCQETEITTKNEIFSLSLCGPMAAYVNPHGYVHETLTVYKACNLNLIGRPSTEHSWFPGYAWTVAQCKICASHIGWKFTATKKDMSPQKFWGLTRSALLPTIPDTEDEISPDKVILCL
Sequence of ZBTB7A (Zinc Finger And BTB Domain Containing 7A) (Q16531 whole entry partner, the tested form may be a part): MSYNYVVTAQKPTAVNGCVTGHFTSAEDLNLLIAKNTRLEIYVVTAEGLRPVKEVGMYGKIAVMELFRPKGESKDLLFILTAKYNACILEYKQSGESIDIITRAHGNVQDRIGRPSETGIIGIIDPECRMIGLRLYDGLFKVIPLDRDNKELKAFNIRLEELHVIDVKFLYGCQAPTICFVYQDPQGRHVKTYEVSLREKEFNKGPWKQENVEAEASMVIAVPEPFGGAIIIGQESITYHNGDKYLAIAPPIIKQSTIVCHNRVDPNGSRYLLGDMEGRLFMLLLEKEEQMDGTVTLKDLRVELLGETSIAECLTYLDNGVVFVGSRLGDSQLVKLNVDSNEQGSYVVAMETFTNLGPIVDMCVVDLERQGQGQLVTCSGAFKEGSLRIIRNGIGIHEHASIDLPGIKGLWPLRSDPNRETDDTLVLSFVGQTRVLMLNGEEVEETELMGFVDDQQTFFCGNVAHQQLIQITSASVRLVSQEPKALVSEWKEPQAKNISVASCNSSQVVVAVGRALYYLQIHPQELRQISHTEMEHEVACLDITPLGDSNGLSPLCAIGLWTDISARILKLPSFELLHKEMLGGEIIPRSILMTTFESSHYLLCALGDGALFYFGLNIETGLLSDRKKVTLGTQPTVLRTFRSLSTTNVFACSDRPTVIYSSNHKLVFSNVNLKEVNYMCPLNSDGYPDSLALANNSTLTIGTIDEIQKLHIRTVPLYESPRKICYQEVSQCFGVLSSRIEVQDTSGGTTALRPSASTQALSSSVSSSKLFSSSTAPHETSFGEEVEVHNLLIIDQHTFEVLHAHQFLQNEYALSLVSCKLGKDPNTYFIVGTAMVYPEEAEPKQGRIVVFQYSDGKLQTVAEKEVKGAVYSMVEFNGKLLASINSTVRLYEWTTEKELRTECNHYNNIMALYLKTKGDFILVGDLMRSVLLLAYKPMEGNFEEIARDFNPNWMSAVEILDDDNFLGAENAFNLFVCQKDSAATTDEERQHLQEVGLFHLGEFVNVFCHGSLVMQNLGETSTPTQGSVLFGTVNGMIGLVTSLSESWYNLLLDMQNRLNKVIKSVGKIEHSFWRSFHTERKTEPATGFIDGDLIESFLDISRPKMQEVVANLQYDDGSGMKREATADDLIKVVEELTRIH
Sequence of WIZ (Widely interspaced zinc finger) (O95785 whole entry): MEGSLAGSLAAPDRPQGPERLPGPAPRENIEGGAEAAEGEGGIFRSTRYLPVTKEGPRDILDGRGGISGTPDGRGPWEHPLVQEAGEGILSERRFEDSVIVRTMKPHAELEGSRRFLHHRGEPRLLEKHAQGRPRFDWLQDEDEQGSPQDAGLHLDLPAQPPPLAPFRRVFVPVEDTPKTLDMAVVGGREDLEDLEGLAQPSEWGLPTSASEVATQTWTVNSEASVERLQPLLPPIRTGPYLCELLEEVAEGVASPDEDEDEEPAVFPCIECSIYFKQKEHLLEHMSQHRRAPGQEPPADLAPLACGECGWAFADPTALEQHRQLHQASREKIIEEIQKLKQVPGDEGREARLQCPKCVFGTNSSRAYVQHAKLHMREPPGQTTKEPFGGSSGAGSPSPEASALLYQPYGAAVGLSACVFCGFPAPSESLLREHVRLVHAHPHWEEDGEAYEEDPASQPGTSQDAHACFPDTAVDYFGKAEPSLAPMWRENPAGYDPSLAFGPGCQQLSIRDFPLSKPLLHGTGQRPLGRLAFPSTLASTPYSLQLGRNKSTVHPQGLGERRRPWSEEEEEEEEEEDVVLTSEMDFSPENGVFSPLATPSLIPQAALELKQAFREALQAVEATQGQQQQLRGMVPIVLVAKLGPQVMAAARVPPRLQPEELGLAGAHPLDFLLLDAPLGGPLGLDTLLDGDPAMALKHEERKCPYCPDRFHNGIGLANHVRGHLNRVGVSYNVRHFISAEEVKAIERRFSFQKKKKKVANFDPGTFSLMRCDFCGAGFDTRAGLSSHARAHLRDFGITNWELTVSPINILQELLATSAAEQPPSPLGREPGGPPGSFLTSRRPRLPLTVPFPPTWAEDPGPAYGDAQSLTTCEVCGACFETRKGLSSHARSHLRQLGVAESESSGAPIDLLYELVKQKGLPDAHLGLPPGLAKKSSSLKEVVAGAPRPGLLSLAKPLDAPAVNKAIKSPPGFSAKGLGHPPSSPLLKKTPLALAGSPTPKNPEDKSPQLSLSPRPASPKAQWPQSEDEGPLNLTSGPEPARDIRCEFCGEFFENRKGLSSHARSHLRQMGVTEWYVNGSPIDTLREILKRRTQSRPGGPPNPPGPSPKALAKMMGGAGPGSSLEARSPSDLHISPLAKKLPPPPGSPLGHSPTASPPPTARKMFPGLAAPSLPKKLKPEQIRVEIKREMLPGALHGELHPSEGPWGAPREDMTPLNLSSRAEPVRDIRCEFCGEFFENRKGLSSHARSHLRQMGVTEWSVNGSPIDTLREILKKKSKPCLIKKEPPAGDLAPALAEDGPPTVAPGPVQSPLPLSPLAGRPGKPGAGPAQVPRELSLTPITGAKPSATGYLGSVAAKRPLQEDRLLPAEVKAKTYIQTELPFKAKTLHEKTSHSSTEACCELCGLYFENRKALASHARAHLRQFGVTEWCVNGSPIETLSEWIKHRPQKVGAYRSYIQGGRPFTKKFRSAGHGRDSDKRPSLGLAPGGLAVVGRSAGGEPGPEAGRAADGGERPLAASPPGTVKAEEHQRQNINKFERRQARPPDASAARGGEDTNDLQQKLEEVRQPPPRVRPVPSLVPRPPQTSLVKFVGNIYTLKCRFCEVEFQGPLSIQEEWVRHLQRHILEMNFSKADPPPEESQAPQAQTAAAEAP
Sequence of WIZ (Widely interspaced zinc finger) (Q96SW2 whole entry): as the sequence (Q96SW2 whole entry, the tested form may be a part) above
Sequence of WIZ (Widely interspaced zinc finger) (Q16531 whole entry partner): as the sequence (Q16531 whole entry partner, the tested form may be a part) above

The EC50 is the concentration at which the effect is half-maximal. A lower EC50 goes with an effect from little substance. On to `COc1cc(OCCN2CCCCC2)ccc1Nc1cccc2c1C(=O)N(C1CCC(=O)NC1=O)C2=O` (stereo not drawn) [Compound 12, 2-(2,6-dioxopiperidin-3-yl)-4-((2-methoxy-4-(2-(piperidin-1-yl)ethoxy)phenyl)amino)isoindoline-1,3-dione], for which the EC50 in assay [1] was < 10 nM. Also, in assay [2], the DC50 is 30 to 100 nM. Besides, the activation at 1 µM in assay [3] was 66 to 100%.
`Cc1cccc(F)c1Oc1ccc2c(cnn2C)c1Nc1cccc2c1C(=O)N(C1CCC(=O)NC1=O)C2=O` (stereo not drawn) [Compound 6, 2-(2,6-dioxopiperidin-3-yl)-4-((5-(2-fluoro-6-methylphenoxy)-1-methyl-1H-indazol-4-yl)amino)isoindoline-1,3-dione]: the half-maximal effective concentration (EC50) in assay [1] was < 10 nM. Besides, the DC50 in assay [2] is 30 to 100 nM. The same molecule yielded an activation at 1 µM in assay [3] of 66 to 100%.
`Cc1cc(-c2cc3c(cnn3C3CCOCC3)cc2Nc2cccc3c2C(=O)N(C2CCC(=O)NC2=O)C3=O)ccn1` (stereo not drawn) [Compound 4, 2-(2,6-dioxopiperidin-3-yl)-4-((6-(2-methylpyridin-4-yl)-1-(tetrahydro-2H-pyran-4-yl)-1H-indazol-5-yl)amino)isoindoline-1,3-dione]: the DC50 in assay [1] was 10 to 100 nM; in assay [2], 30 to 100 nM. In assay [3], this molecule showed an activation at 1 µM of 66 to 100%.
Taken in the same sequence, the figures for `COc1ccc(-c2cc3ncn(C)c3cc2Nc2cccc3c2C(=O)N(C2CCC(=O)NC2=O)C3=O)cc1F` (stereo not drawn) [Compound 5, 2-(2,6-dioxopiperidin-3-yl)-4-((5-(3-fluoro-4-methoxyphenyl)-1-methyl-1H-benzo[d]imidazol-6-yl)amino)isoindoline-1,3-dione] were 10 to 100 nM, 30 to 100 nM and 66 to 100%.
Taken in the same sequence, the figures for `Cc1cc(-c2cc3c(cnn3[C@@H]3CCOC3)cc2Nc2cccc3c2C(=O)N([C@H]2CCC(=O)NC2=O)C3=O)ccn1` [Compound 44, 2-((S)-2,6-dioxopiperidin-3-yl)-4-((6-(2-methylpyridin-4-yl)-1-((R)-tetrahydrofuran-3-yl)-1H-indazol-5-yl)amino)isoindoline-1,3-dione] were 10 to 100 nM, 30 to 100 nM and 66 to 100%.
Consider `COc1ccc(-c2cc3c(cnn3C)cc2Nc2cccc3c2C(=O)N(C2CCC(=O)NC2=O)C3=O)cc1F` (stereo not drawn) [Compound 14, 2-(2,6-dioxopiperidin-3-yl)-4-((6-(3-fluoro-4-methoxyphenyl)-1-methyl-1H-indazol-5-yl)amino)isoindoline-1,3-dione], for which the DC50 in assay [1] is > 100 nM. Besides, the EC50 in assay [2] was > 100 nM. In assay [3], this molecule displayed an activation at 1 µM of 66 to 100%.
For `Cc1cc(-c2cc3c(cnn3C)cc2Nc2cccc3c2C(=O)N(C2CCC(=O)NC2=O)C3=O)cnn1` (stereo not drawn) [Compound 24, 2-(2,6-dioxopiperidin-3-yl)-4-((1-methyl-6-(6-methylpyridazin-4-yl)-1H-indazol-5-yl)amino)isoindoline-1,3-dione], the DC50 in assay [1] is > 100 nM. Further, the EC50 in assay [2] is > 100 nM. Also, in assay [3], the activation at 1 µM lay in the range of 33 to 66%.
On to `Cc1csc(-c2cc3c(cc2Nc2cccc4c2C(=O)N(C2CCC(=O)NC2=O)C4=O)N(C)C(=O)CC3)n1` (stereo not drawn) [Compound 39, 2-(2,6-dioxopiperidin-3-yl)-4-((1-methyl-6-(4-methylthiazol-2-yl)-2-oxo-1,2,3,4-tetrahydroquinolin-7-yl)amino)isoindoline-1,3-dione], for which the results for the DC50 in assay [1] and in assay [2] were 10 to 100 nM and 30 to 100 nM, respectively. The activation at 1 µM in assay [3] lay in the range of 33 to 66%.
